Laboratory results taken from patent US20260317324A1, “BIFUNCTIONAL COMPOUNDS FOR DEGRADING BRAF VIA UBIQUITIN PROTEOSOME PATHWAY” (Nurix Therapeutics, Inc., priority 2023, published 2026).

Legend:
Assay type in all cases: cell-based
BRAF G466V = target: T1, BRAF G466V (Homo sapiens, UniProt P15056, G466V); experiment: BRAF HiBiT degradation assay, C-terminal HiBiT-tagged BRAF G466V overexpressed in HCT-116 BRAF−/− cells (clone 8), Nano-Glo HiBiT Lytic assay; conditions: BRAF G466V; for DC50: DC50 at 50%: fitted conc. at Y=50; for Dmax: HCT-116, percentage protein degraded at maximal compound effect relative to DMSO
T1 construct: Horizon Discovery (HCT-116 BRAF−/− cells); host or cells: HCT-116 BRAF−/− cells, clone 8, lentiviral transduction
T1 sequence (P15056 whole entry G466V): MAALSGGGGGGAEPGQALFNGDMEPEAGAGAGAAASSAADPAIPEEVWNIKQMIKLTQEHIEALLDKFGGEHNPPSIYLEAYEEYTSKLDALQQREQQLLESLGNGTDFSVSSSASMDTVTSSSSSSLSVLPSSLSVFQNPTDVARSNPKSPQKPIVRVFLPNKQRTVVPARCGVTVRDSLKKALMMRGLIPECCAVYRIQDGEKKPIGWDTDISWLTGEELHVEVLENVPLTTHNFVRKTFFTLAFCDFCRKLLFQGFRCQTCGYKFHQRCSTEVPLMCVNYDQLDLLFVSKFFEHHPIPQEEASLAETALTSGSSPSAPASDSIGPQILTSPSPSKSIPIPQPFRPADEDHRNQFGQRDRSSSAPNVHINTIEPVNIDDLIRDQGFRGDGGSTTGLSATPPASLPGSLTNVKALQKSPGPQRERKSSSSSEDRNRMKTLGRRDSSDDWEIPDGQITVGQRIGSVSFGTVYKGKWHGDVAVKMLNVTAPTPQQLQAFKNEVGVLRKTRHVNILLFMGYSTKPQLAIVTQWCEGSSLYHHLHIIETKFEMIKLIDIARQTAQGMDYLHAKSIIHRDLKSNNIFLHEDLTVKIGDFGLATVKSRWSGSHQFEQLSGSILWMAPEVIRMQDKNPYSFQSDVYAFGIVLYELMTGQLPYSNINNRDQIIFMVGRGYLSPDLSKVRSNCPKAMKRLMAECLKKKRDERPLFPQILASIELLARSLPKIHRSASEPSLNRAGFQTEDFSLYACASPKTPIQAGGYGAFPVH
Excerpt: (§1) An A375 cell line expressing a homozygous V600E mutation was purchased from ATCC (Manassas, VA, USA). An A375 clone 1F10 cell line with an endogenous C-terminal HiBiT fusion tag on BRAF V600E allele was generated internally using CRISPR-Cas9 technology and cultured in DMEM, high glucose supplemented with 10% FBS and 1× GlutaMAX. A HCT-116 BRAF−/− cell line overexpressing the C-terminal HiBiT-tagged G466V, G469A, and D594G mutants were generated by lentiviral transduction, externally at Biosettia Inc (San Diego, CA, USA). The stably transfected cells were cultured in RPMI media supplemented with 10% FBS, 1× GlutaMAX, and 0.25 μg/ml puromycin. DMEM medium, RPMI 1640 medium, GlutaMAX, fetal bovine serum (FBS), and puromycin were purchased from Gibco (Grand Island, NY, USA). HCT-116 BRAF−/− cells were purchased from Horizon Discovery (Waterbeach, UK).
(§2) The C-terminal HiBiT tagged mutant BRAF G466V, G469A, and D594G overexpressed in HCT-116 BRAF−/− cells (monoclonal cell line, cell clones 8, 34, and 63, respectively) were seeded at the density of 3,000 cells/well in 30 μL media (RPMI supplemented with 10% FBS and 1× GlutaMAX) in white opaque 384-well plates (Corning #3570) from column 1 to column 23. Wildtype HCT-116 BRAF cells were seeded in column 24 at the same cell density in 30 μL media. Cells were incubated at 37° C. with 5% CO2 for 24 h.
(§3) Intermediate compound dilution series (5-point, ranging from 5 mM to 0.5 μM, 10-fold dilutions in DMSO) were prepared in a source plate (Beckman Coulter cat. no. 001-16128). Final compound dilution series (11-point, ranging from 1 μM to 0.01 nM, half-log dilutions in DMSO) were stamped into the assay plate (Corning #3570, column 1-11 and 12-22) using the Echo Acoustic Liquid Handler (Beckman Coulter). Each compound was plated in duplicate, and the total volume of compound DMSO solution was 60 nL/well (0.2% final DMSO concentration). DMSO was included in wells A23-L23 and A24-L24. The DMSO-treated HiBiT-tagged samples served as Negative Control (NC) and the DMSO-treated wildtype samples served as Background Control (BC) for the HiBiT assay.
(§4) HiBiT signal was measured by a Nano-Glo HiBiT Lytic assay (Promega cat. no. N3050). HiBiT lytic detection reagent (Nano-Glo HiBiT Lytic Buffer with 1:50 Nano-Glo HiBiT Lytic Substrate and 1:100 LgBiT Protein, 40 μL) was added using Bravo. The mixture was incubated at room temperature, in the dark, and with gentle shaking for 10 min. Luminesce units (LU) were read on an EnVision plate reader 2105 (Perkin Elmer).
(§5) Percent protein remaining and viability remaining per sample were calculated as follows: […]
(§6) % Protein remaining values were plotted as a function of compound concentration. XC50 (DC50) values were determined by fitting curves using the following equation:
(§7) For the HiBiT degradation assay, the key parameters reported include: • The dose of compound that produces 50% degradation (DC50 at 50%): • DC50 at 50%: the Fitted X value (Conc.) at Y=50 (response) • Observed Dmax (Obs. Dmax) is the percentage protein degraded at maximal compound effect relative to DMSO-treated control: […]

BRAF G469A = target: T2, BRAF G469A (Homo sapiens, UniProt P15056, G469A); experiment: BRAF HiBiT degradation assay, C-terminal HiBiT-tagged BRAF G469A overexpressed in HCT-116 BRAF−/− cells (clone 34), Nano-Glo HiBiT Lytic assay; conditions: Class 2, BRAF G469A; for DC50: DC50 at 50%: fitted conc. at Y=50; for Dmax: HCT-116, percentage protein degraded at maximal compound effect relative to DMSO
T2 construct: Horizon Discovery (HCT-116 BRAF−/− cells); host or cells: HCT-116 BRAF−/− cells, clone 34, lentiviral transduction
T2 sequence (P15056 whole entry G469A): as the sequence (P15056 whole entry G466V) above, with V466G, G469A counted along it
Excerpt: as §1, §2, §3, §4, §5, §6, §7

BRAF D594G = target: T3, BRAF D594G (Homo sapiens, UniProt P15056, D594G); experiment: BRAF HiBiT degradation assay, C-terminal HiBiT-tagged BRAF D594G overexpressed in HCT-116 BRAF−/− cells (clone 63), Nano-Glo HiBiT Lytic assay; conditions: BRAF D594G; for DC50: DC50 at 50%: fitted conc. at Y=50; for Dmax: HCT-116, percentage protein degraded at maximal compound effect relative to DMSO
T3 construct: Horizon Discovery (HCT-116 BRAF−/− cells); host or cells: HCT-116 BRAF−/− cells, clone 63, lentiviral transduction
T3 sequence (P15056 whole entry D594G): as the sequence (P15056 whole entry G466V) above, with V466G, D594G counted along it
Excerpt: as §1, §2, §3, §4, §5, §6, §7

BRAF V600E = target: T4, BRAF V600E (Homo sapiens, UniProt P15056, V600E); experiment: BRAF HiBiT degradation assay, C-terminal HiBiT-tagged BRAF V600E A375 cells (clone 1F10), Nano-Glo HiBiT Lytic assay; conditions: A375 (BRAF V600E); for DC50: DC50 at 50%: fitted conc. at Y=50; for Dmax: A-375, percentage protein degraded at maximal compound effect relative to DMSO
T4 construct: endogenous C-terminal HiBiT fusion tag on BRAF V600E allele; endogenous in cells; host or cells: A375 clone 1F10 (CRISPR-Cas9 knock-in of the HiBiT tag; parental A375 from ATCC)
T4 sequence (P15056 whole entry V600E, the tested form may be a part): as the sequence (P15056 whole entry G466V) above, with V466G, V600E counted along it
In short: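 A375 cells with CRISPR knock-in C-terminal HiBiT on endogenous BRAF V600E (clone 1F10) were seeded and cultured 24 h at 37 °C, then dosed with an 11-point half-log series (1 μM to 0.01 nM, duplicate, 0.2% DMSO). Lytic HiBiT luminescence gave % protein remaining; DC50 was the fitted concentration at 50%.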

| SMILES | DC50 (BRAF G466V) [µM] | Dmax (BRAF G466V) [%] | DC50 (BRAF G469A) [µM] | Dmax (BRAF G469A) [%] | DC50 (BRAF D594G) [µM] | Dmax (BRAF D594G) [%] | DC50 (BRAF V600E) [µM] | Dmax (BRAF V600E) [%] |
| --- | --- | --- | --- | --- | --- | --- | --- | --- |
| CCCS(=O)(=O)Nc1cccc(-c2nc(C(C)(C)C)sc2-c2ccnc(Nc3cccc(OC4CCN(C(=O)[C@@H]5CCN(c6ccc(C7CCC(=O)NC7=O)cn6)C5)CC4)c3)n2)c1F (mixture of isomers) [Compound 94, N-{3-[2-tert-butyl-5-(2-{[3-({1-[(3R)-1-{5-[(3RS)-2,6-dioxopiperidin-3-yl]pyridin-2-yl}pyrrolidine-3-carbonyl]piperidin-4-yl}oxy)phenyl]amino}pyrimidin-4-yl)-1,3-thiazol-4-yl]-2-fluorophenyl}propane-1-sulfonamide] | < 0.01 | 30 to 70 | > 0.5 | 30 to 70 | < 0.01 | 30 to 70 | < 0.01 | > 70 |
| CCCS(=O)(=O)Nc1cccc(-c2nc(C(C)(C)C)sc2-c2ccnc(Nc3cnn(CC4CCN(C(=O)C[C@H]5CCN(c6ccc(C7CCC(=O)NC7=O)cc6)C5)CC4)c3)n2)c1F (mixture of isomers) [Compound 111, N-(3-{2-tert-butyl-5-[2-({1-[(1-{2-[(3R)-1-{4-[(3RS)-2,6-dioxopiperidin-3-yl]phenyl}pyrrolidin-3-yl]acetyl}piperidin-4-yl)methyl]-1H-pyrazol-4-yl}amino)pyrimidin-4-yl]-1,3-thiazol-4-yl}-2-fluorophenyl)propane-1-sulfonamide] | 0.05 to 0.5 | < 30 | 0.05 to 0.5 | < 30 | 0.05 to 0.5 | 30 to 70 | < 0.01 | 30 to 70 |
| CCCS(=O)(=O)Nc1cccc(-c2nc(C(C)(C)C)sc2-c2ccnc(Nc3cnn(CC4CCN(C(=O)C[C@@H]5CCN(c6ccc(C7CCC(=O)NC7=O)cc6)C5)CC4)c3)n2)c1F (mixture of isomers) [Compound 112, N-(3-{2-tert-butyl-5-[2-({1-[(1-{2-[(3S)-1-{4-[(3RS)-2,6-dioxopiperidin-3-yl]phenyl}pyrrolidin-3-yl]acetyl}piperidin-4-yl)methyl]-1H-pyrazol-4-yl}amino)pyrimidin-4-yl]-1,3-thiazol-4-yl}-2-fluorophenyl)propane-1-sulfonamide] | > 0.5 | < 30 | > 0.5 | < 30 | > 0.5 | 30 to 70 | < 0.01 | 30 to 70 |
| CCCS(=O)(=O)Nc1cccc(-c2nc(C(C)(C)C)sc2-c2ccnc(Nc3cnn(CC4CCN(C(=O)[C@@H]5CCN(c6ccc(C7CCC(=O)NC7=O)cn6)C5)CC4)c3)n2)c1F (mixture of isomers) [Compound 114, N-{3-[2-tert-butyl-5-(2-{[1-({1-[(3R)-1-{5-[(3RS)-2,6-dioxopiperidin-3-yl]pyridin-2-yl}pyrrolidine-3-carbonyl]piperidin-4-yl}methyl)-1H-pyrazol-4-yl]amino}pyrimidin-4-yl)-1,3-thiazol-4-yl]-2-fluorophenyl}propane-1-sulfonamide] | > 0.5 | < 30 | > 0.5 | < 30 | > 0.5 | 30 to 70 | 0.01 to 0.05 | > 70 |
| CCCS(=O)(=O)Nc1cccc(-c2nc(C(C)(C)C)sc2-c2ccnc(Nc3ccc(C4CCN(C(=O)[C@@H]5CCN(c6ccc(C7CCC(=O)NC7=O)cn6)C5)CC4)cc3)n2)c1F (mixture of isomers) [Compound 164, N-[3-(2-tert-butyl-5-{2-[(4-{1-[(3R)-1-{5-[(3RS)-2,6-dioxopiperidin-3-yl]pyridin-2-yl}pyrrolidine-3-carbonyl]piperidin-4-yl}phenyl)amino]pyrimidin-4-yl}-1,3-thiazol-4-yl)-2-fluorophenyl]propane-1-sulfonamide] | > 0.5 | 30 to 70 | > 0.5 | < 30 | > 0.5 | 30 to 70 | < 0.01 | > 70 |
